Assay [1] concerns MCF10A (non-tumor-derived normal breast cell line). Put plainly: Cancer screening (MTT growth inhibition), MCF10A. It counts as cell-based. The note with it: 72 h; for inhibition at 25 µM / Percentage (%) cell growth inhibition: 25 µM of drug, n = 3, mean ± SEM; for inhibition at 25 µM: read-out: Percentage (%) cell growth inhibition. How it is done:
(§1) All test agents were prepared as stock solutions (20 mM) in dimethyl sulfoxide (DMSO) and stored at −20 °C. Cell lines used in the study included: HT29 (colorectal carcinoma), U87 and SJ-G2 (glioblastoma), MCF-7 (breast carcinoma), A2780 (ovarian carcinoma), H460 (lung carcinoma), A431 (skin carcinoma), Du145 (prostate carcinoma), BE2-C (neuroblastoma), MiaPaCa-2 (pancreatic carcinoma), SMA560 (spontaneous murine astrocytoma), and ADDP (Cis Res Ovarian), together with one non-tumor-derived normal breast cell line (MCF10A). All cell lines were incubated in a humidified atmosphere with 5 % CO2 at 37 °C. The cancer cell lines were maintained in Dulbecco’s modified Eagle’s medium (DMEM; Sigma, Australia) supplemented with fetal bovine serum (10%), sodium pyruvate (10 mM), penicillin (100 IUmL^−1), streptomycin (100 µg mL^−1), and L-glutamine (2 mM).
The non-cancer MCF10A cell line was maintained in DMEM:F12 (1:1) cell culture media, 5% heat inactivated horse serum, and supplemented with penicillin (50 IUmL^−1), streptomycin (50 µg mL^−1), HEPES (20 mM), L-glutamine (2 mM), epidermal growth factor (20 ng mL^−1), hydrocortisone (500 ng mL^−1), cholera toxin (100 ng mL^−1), and insulin ([…]).
(§2) Growth inhibition was determined by plating cells in duplicate in medium (100 µL) at a density of 2500–4000 cells per well in 96-well plates. On day 0 (24 h after plating), when the cells are in logarithmic growth, medium (100 µL) with or without the test agent was added to each well. After 72 h of drug exposure, growth inhibitory effects were evaluated using the (3-(4,5-dimethyltiazol-2-yl)-2,5-diphenyltetrazolium bromide) (MTT) assay and absorbance read at 540 nm. The percentage growth inhibition was calculated at a fixed concentration of 25 µM, based on the difference between the optical density values on day 0 and those at the end of drug exposure. Each data point is the mean ± the standard error of the mean (SEM) calculated from three replicates, which were performed on separate occasions and in separate cell line passages.

A further assay has as its system A431 (skin carcinoma). The assay can be described thus: Cancer screening (MTT growth inhibition), A431. It counts as cell-based. Conditions: 72 h; for inhibition at 25 µM: A-431, 25 µM of drug, read-out: Percentage (%) cell growth inhibition; for inhibition at 25 µM / Percentage (%) cell growth inhibition: n = 3, mean ± SEM; for Percentage (%) cell growth inhibition: 25 µM of drug. How it is done: as §1, §2

In a further assay the target is T1, Jack bean α-mannosidase (Canavalia ensiformis, UniProt C0HJB3).
T1 construct: purchased Sigma-Aldrich Co
T1 sequence (C0HJB3 1-981): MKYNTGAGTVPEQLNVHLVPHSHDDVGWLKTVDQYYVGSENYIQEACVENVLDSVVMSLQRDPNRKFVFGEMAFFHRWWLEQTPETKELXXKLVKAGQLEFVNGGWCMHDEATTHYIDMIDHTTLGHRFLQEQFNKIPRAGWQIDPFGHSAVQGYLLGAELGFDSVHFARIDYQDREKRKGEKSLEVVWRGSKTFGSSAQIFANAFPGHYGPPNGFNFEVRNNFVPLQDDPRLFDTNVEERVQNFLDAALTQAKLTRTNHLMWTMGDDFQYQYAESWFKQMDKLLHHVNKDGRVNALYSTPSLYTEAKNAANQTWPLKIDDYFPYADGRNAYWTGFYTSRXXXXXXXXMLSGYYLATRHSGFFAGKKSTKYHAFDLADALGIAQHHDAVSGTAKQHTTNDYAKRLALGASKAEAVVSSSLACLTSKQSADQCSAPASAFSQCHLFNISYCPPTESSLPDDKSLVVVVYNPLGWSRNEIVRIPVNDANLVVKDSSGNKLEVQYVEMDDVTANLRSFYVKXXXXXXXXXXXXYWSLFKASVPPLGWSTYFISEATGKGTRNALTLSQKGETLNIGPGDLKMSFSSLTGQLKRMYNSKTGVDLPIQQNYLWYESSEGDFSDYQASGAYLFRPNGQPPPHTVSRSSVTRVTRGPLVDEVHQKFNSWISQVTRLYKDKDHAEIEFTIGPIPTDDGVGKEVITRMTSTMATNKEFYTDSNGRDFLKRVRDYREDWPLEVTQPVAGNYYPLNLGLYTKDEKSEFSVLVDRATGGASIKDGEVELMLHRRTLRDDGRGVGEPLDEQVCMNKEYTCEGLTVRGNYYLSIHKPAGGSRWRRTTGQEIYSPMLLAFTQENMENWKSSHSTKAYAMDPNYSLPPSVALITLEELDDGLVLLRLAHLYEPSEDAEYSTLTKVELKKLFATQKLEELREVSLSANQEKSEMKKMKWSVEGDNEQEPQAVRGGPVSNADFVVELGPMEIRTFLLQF
The assay can be described thus: Glycosidase inhibition, Jack bean α-mannosidase. It counts as biochemical. An excerpt:
Glycosidase modulation studies need to explore selectivity as well as potency. Our drugs and controls are therefore screened against a panel of glycosidases in methanol (Table 1) to identify the glycosidase-related disease area(s), selectivity profile, and potency of biological action for each drug. The presence of organic boron covalently bonded to the drug structure also grants a reduced toxicity profile. Following the glycosidase inhibition range recommendations, an IC50 value >250 μm denotes weak inhibition, 100–249 μm denotes moderate inhibition, 10–99 μm good inhibition, 0.1–9 μm potent inhibition, and <0.1 μm very potent inhibition. […] Our boronated D-galactose 7 represents a novel lead in glycosidase inhibition.
The glycosidases screened are the following: rice α-glucosidase, yeast α-glucosidase, Bacillus α-glucosidase, rat intestinal maltase α-glucosidase, almond β-glucosidase, bovine liver β-glucosidase, coffee beans α-galactosidase, bovine liver β-galactosidase, Jack bean α-mannosidase, snail β-mannosidase, Penicillium decumbens α-L-rhamnosidase, bovine kidney α-L-fucosidase, Eschierichia coli β-glucuronidase, bovine liver β-glucuronidase, porcine kidney trehalase, Aspergillus niger amyloglucosidase, and bovine kidney N-acetyl-β-glucosaminidase. The disease areas for each glycosidase are summarized in [1].
The enzymes α-glucosidase (from yeast), β-glucosidases (from almond and bovine liver), α-galactosidase (from coffee beans), β-galactosidase (from bovine liver), α-mannosidase (from Jack bean), β-mannosidase (from snail), α-L-rhamnosidase (from Penicillium decumbens), α-L-fucosidase (from bovine kidney), trehalase (from porcine kidney), β-glucuronidases (from E. coli and bovine liver), amyloglucosidase (from A. niger), para-nitrophenyl glycosides, and various disaccharides were purchased from Sigma-Aldrich Co.
Brush border membranes were prepared from the rat small intestine according to the method of Kessler et al. and were assayed at pH 6.8 for rat intestinal maltase using maltose. For rat intestinal maltase, porcine kidney trehalase, and A. niger amyloglucosidase activities, the reaction mixture contained 25 mM maltose and the appropriate amount of enzyme, and the incubations were performed for 10–30 min at 37 °C. The reaction was stopped by heating at 100 °C for 3 min. After centrifugation (600 g; 10 min), the resulting reaction mixture was added to the Glucose CII-test Wako (Wako Pure Chemical Ind., Osaka, Japan). The absorbance at 505 nm was measured to determine the amount of the released D-glucose. Other glycosidase activities were determined using an appropriate para-nitrophenyl glycoside as substrate at the optimum pH of each enzyme. The reaction mixture contained 2 mM of the substrate and the appropriate amount of enzyme. The reaction was stopped by the addition of 400 mM Na2CO3. The released para-nitrophenol was measured spectrometrically at 400 nm. All reactions run in methanol.

[2] abbreviates: at 100 μM, in methanol, read-out: inhibition %.
[3] abbreviates: at 100 μM, read-out: NI: No inhibition.

Like-named read-outs stand apart in the source and are kept apart here. Where only a bound is given, the exact number is not on record here.

Consider `CC1(C)OCC(C2OC3OC(C)(C)OC3C2[B-]23OCC[NH+]2CCO3)O1` [Compound 6, 3-Deoxy-3-Boronodiethanolamine-1,2:5,6-Di-O-isopropylidene-α-D-galactofuranose], for which the inhibition at 25 µM in assay [1] (Homo sapiens, MCF-10A) amounted to 5 ± 1%; in the assay with A431 (skin carcinoma) (Homo sapiens) it was 0%. Besides, the inhibition at 100 µM on Jack bean α-mannosidase (setting [2]) was 0%; on Jack bean α-mannosidase (setting [3]), under 50%.

On to Borocaptate sodium [BSH], for which the “Percentage (%) cell growth inhibition” value in assay [1] is 8 ± 3%; with A431 (skin carcinoma), under 0%. The “NI: No inhibition” value at Jack bean α-mannosidase (at 1000 μM) was “NI (No inhibition (less than 50% inhibition at 1000 μM))”. This compound also gave an inhibition % on Jack bean α-mannosidase (at 1000 μM, in methanol) of 7.9%.

`OCC1OC(O)C(O)C(B(O)O)C1O` [Compound 7, 3-Boronic-3-Deoxy-D-galactose]: the inhibition at 25 µM in assay [1] (Homo sapiens, MCF-10A) amounted to 7 ± 3%; in the assay on A431 (skin carcinoma) (Homo sapiens), 3%. Moreover, the GI50 in assay [1] (Homo sapiens, MCF-10A, dose response, read-out: GI50 = Concentration that inhibits cell growth by 50%) is over 50 µM; in the assay on A431 (skin carcinoma) (Homo sapiens, A-431, dose response, read-out: GI50 = Concentration that inhibits cell growth by 50%) it was over 50 µM. Also, the inhibition at 1000 µM was 0% at Jack bean α-mannosidase (at 1000 μM, in methanol, read-out: inhibition %) and under 50% at Jack bean α-mannosidase (at 1000 μM, read-out: NI: No inhibition).

For the compound `N[C@@H](Cc1ccc(B(O)O)cc1)C(=O)O` [BPA, 4-borono-L-phenylalanine], the inhibition at 25 µM in assay [1] (Homo sapiens, MCF-10A) amounted to 4 ± 1%; in the assay on A431 (skin carcinoma) (Homo sapiens), 4 ± 6%. Moreover, the inhibition at 100 µM on Jack bean α-mannosidase (setting [2]) was 1.1%; at Jack bean α-mannosidase (setting [3]) it was under 50%.

Turning to `N[C@@H](Cc1ccc(B(O)O)cc1)C(=O)O` [^10B-BPA], the entries for the “Percentage (%) cell growth inhibition” value (in assay [1]; in the assay on A431 (skin carcinoma)) were under 0% and 4 ± 4%, respectively. Further, the “NI: No inhibition” value on Jack bean α-mannosidase (at 100 μM) is reported as “NI (No inhibition (less than 50% inhibition at 100 μM))”. For the same compound, at Jack bean α-mannosidase (at 100 μM, in methanol), the inhibition % is 0%.

Broadly, the inhibition is how much of the control response was suppressed.
